PMC8219378, “A putative structural mechanism underlying the antithetic effect of homologous RND1 and RhoD GTPases in mammalian plexin regulation” (eLife, 2021)

T1: RhoD/plexin B2-RBD complex (Homo sapiens, UniProt O00212, Q75L)
T1 construct: human RhoD 8-194 Q75L (catalytically dead), His6-tag removed by 3C protease, E. coli BL21(DE3); mouse plexin B2 intracellular region 1274-1842, tag removed, E. coli ArcticExpress(DE3), degraded in drops to RBD (1463-1565, domain-swapped dimer); with Plexin-B2 (Mus musculus)
T1 sequence (O00212 8-194 Q75L): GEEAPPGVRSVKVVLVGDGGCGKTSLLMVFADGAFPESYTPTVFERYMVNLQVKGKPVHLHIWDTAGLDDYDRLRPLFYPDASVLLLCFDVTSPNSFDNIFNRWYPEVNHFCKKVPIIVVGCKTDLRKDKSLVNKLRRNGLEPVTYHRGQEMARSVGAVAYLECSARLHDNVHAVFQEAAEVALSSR
T1 sequence (B2RXS4 1463-1565 partner): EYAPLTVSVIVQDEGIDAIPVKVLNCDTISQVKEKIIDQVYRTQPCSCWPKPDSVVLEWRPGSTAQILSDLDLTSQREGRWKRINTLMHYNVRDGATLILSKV

T2: human RhoD (residues 8-194) with the Q75L mutation, bound to GMP-PNP (human, UniProt O00212 8-194, Q75L)
T2 construct: Loaded with the GTP analogue GMP-PNP and Mg2+ before crystallization; His6 tag removed with human rhinovirus 3C protease; also called GMP-PNP-loaded RhoD; source: E. coli BL21 (DE3), purified (HisTrap, anion exchange, Superdex 75); not shown: His6, N-terminal, cleaved
T2 sequence (looked up): T1 sequence (O00212 8-194 Q75L)

B1: mouse plexin B2 RBD (Rho-GTPase-binding domain), as found in the crystal (domain or fragment, UniProt B2RXS4 1463-1565, looked up)
chain: T1 sequence (B2RXS4 1463-1565 partner)
notes: Plexin B2, mouse; Expressed as the intracellular region without the juxtamembrane region (residues 1274-1842); it degraded during crystallization and the crystal held only the RBD, built as residues 1463-1509 and 1510-1565; The range is that of the residues modelled in the structure; In the crystal two RBD chains form a domain-swapped dimer (swap between residues 1509 and 1510), which the authors …

Tests used:
[1] = target: T1, RhoD/plexin B2-RBD complex; assay: X-ray crystal structure, […] Å; settings: Mg2+; GTP-binding site of RhoD; RhoD loaded by EDTA exchange; complex with plexin B2 RBD
[2] = target: T2, human RhoD (residues 8-194) with the …; assay: crystal structure; plexin B2 (1274-1842) and GMP-PNP-loaded RhoD mixed at 1:1 molar ratio, 6 mg/mL; crystals grown for over a month at 20 C in 0.2 M MgCl2, 22% PEG3350, 100 mM MIB pH 6.8; molecular replacement, 3.1 A; two RhoD and two RBD in the asymmetric unit; settings: both partners purified

| Molecule | X-ray crystal structure, 3.1 Å [1] | binding result [2] |
| --- | --- | --- |
| Nc1nc2c(ncn2[C@@H]2O[C@H](COP(=O)(O)OP(=O)(O)NP(=O)(O)O)[C@@H](O)[C@H]2O)c(=O)[nH]1 [GMP-PNP, guanosine 5′-[β,γ-imido]triphosphate] | complex of mouse plexin B2 and human RhoD bound to the GTP analogue GMP-PNP | – |
| B1 | – | binds |
